Reference: patent US20180221343A1, “PHARMACEUTICAL COMPOSITION FOR PREVENTING OR TREATING MACULAR DEGENERATION” (KOREA RESEARCH INSTITUTE OF CHEMICAL TECHNOLOGY, priority 2011, published 2018)

Experiments:
[1] = Retinal delivery of eye drop formulation (levels in ocular tissues and plasma); type: in vivo, Rats; conditions: eye drop 50 μl of Formulation Example 1
Description: We evaluated whether the eye drop formulation containing (2R,3R,4S)-6-amino-4-[N-(4-chlorophenyl)-N-(1H-imidazol-2-ylmethyl)amino]-3-hydroxy-2-methyl-2-dimethoxymethyl-3,4-dihydro-2H-1-benzopyran is penetrated through the cornea and then delivered to the retina. Rats (8 weeks old) were used in the test; and the eye drop formulation (50 μl) prepared in the following Formulation Example 1 was dropped on each rat's eye.

[2] = tested on: VEGF receptor 2 (FLK-1); assay: Expression of VEGF receptor 2 (FLK-1) in corneal tissue by RT-PCR; type: in vivo, rats; conditions: subconjunctival injection 20 μl; KR 0.3 mg/ml, Avastin 10 mg/ml
Description: The tests were performed for confirming corneal angiogenesis as a marker. To a Trizole™ solution (200 μl), were added each corneal tissue obtained from the rats of Example 1. Total RNAs were isolated and then cDNAs were prepared by using a reverse transcriptase. Each cDNA (5 μl) was mixed with the primer set of FLK-1 and then PCR amplication was performed in a thermocycler under the following conditions; denaturation at 94° C. for 5 minutes, and then 35 cycles of denaturation at 94° C. for 20 seconds, annealing at 58° C. for 1 minute, and extension at 72° C. for 25 seconds. Each PCR product was loaded on 1% agarose gel; and the resulting ethidium bromide fluorescent bands were identified.

[3] = tested on: corneal angiogenesis; assay: Inhibitory effects against corneal angiogenesis in animal models having corneal damage (subconjunctival injection); type: in vivo, Sprague Dawley rats; conditions: subconjunctival injection 20 μl; KR 0.3 mg/ml, Avastin 10 mg/ml; 1 week after administration
Description: (§1) The tests were performed by using Sprague Dawley rats (8 weeks old, male) as animals having corneal damage (15 rats for the experiment group; and 1 rat for normal group, respectively). The corneal damage was induced by applying a cotton swab coated with silver nitrate to the surface of the rat corneas, as as to induce a damage having a diameter of 2 mm in the central cornea. On the third day after inducing the corneal damages, we confirmed the establishment of corneal angiogenesis-inducing models and then subconjunctivally injected a solution (20 μl) prepared by dissolving the compound of Preparation Example 23, i.e., (2R,3R,4S)-6-amino-4-[N-(4-chlorophenyl)-N-(1H-imidazol-2-ylmethyl)amino]-3-hydroxy-2-methyl-2-dimethoxymethyl-3,4-dihydro-2H-1-benzopyran (KR-31831) in phosphate buffered saline (PBS) containing 10% PEG 400, in the concentration of 0.3 mg/ml. In case of the control group, the PBS (20 μl) containing 10% PEG 400 was subconjunctivally injected. As a positive control, a solution (20 μl) prepared by dissolving Avastin (used as an angiogenesis inhibitor) in PBS in the concentration of 10 mg/ml was subconjunctivally injected. The evaluations quantifying the photographs of FIG. 1 were performed by using the Image J (NIH, USA) program and the results thereof were shown in FIG. 2.

[4] = tested on: corneal angiogenesis; assay: Inhibitory effects against corneal angiogenesis, subconjunctival injection and eye drop-administration; type: in vivo, Sprague Dawley rats; conditions: subconjunctival injection 20 μl plus eye drop 50 μl; KR 0.3 mg/ml, Avastin 10 mg/ml
Description: as §1, with “In case of the control group, the PBS (20 μl) containing 10% PEG 400 was subconjunctivally injected. As a positive control, a solution (20 μl) prepared by dissolving Avastin (used as an angiogenesis inhibitor) in PBS in the concentration of 10 mg/ml was subconjunctivally injected.” left out
Except for performing both the subconjunctival injection and the eye drop-administration of (2R,3R,4S)-6-amino-4-[N-(4-chlorophenyl)-N-(1H-imidazol-2-ylmethyl)amino]-3-hydroxy-2-methyl-2-dimethoxymethyl-3,4-dihydro-2H-1-benzopyran and Avastin, the inhibitory effects against angiogenesis were evaluated according to the same manners as in Example 1. […]

[5] = tested on: retinal angiogenesis; assay: Laser-induced retinal damage model, retinal angiogenesis by dextran-FITC fluorescence; type: in vivo, Brown Norway rats; conditions: 2 weeks after administration
Description: The tests were performed by using Brown Norway rats (8 weeks old, male) as animals having retinal damage (15 rats for the experiment group; and 1 rat for normal group, respectively). The retinal Bruch's membrane of each Brown Norway rat was damaged using a Zeiss 532s laser at the intensity of […], 30 ms. On the third day after the laser-damaging, the drug was administered into the vitreous humor in order to observe the retinal vessels. The compound of the present invention, i.e., (2R,3R,4S)-6-amino-4-[N-(4-chlorophenyl)-N-(1H-imidazol-2-ylmethyl)amino]-3-hydroxy-2-methyl-2-dimethoxymethyl-3,4-dihydro-2H-1-benzopyran was administered with the solutions (10 μl of each solution) obtained by dissolving in PBS containing 30% PEG 400 and 10% DMSO, in the concentrations of 0.1 mg/ml and 0.3 mg/ml. Avastin was administered with the solution (10 μl) obtained by dissolving in PBS in the concentration of 2.5 mg/ml. In case of the control group, the PBS (10 μl) was administered. In addition, (2R,3R,4S)-6-amino-4-[N-(4-chlorophenyl)-N-(1H-imidazol-2-ylmethyl)amino]-3-hydroxy-2-methyl-2-dimethoxymethyl-3,4-dihydro-2H-1-benzopyran was intraperitoneally administered with the solution obtained by dissolving in PBS containing 30% PEG 400 and 10% DMSO, in the dose of 25 mg/kg. 2 weeks after the drug administrations, dextran-FITC was injected into the left ventricle in the dose of 25 mg/kg, followed by enucleating the eye after 5 minutes therefrom; and then fixing in a 10% formalin solution. The cornea and the eye lens were removed from the fixed eye, which was then observed under a fluorescence microscope. Angiogenesis was identified by the intensity and leakage of dextran-FITC in the laser-induced damage site; and the results thereof were shown in FIG. 7. The evaluations quantifying the photographs of FIG. 7 were performed by using the Image J (NIH, USA) program and the results thereof were shown in FIG. 8.

COC(OC)[C@]1(C)Oc2ccc(N)cc2[C@H](N(Cc2ncc[nH]2)c2ccc(Cl)cc2)[C@H]1O [KR-31831, (2R,3R,4S)-6-amino-4-[N-(4-chlorophenyl)-N-(1H-imidazol-2-ylmethyl)amino]-3-hydroxy-2-methyl-2-dimethoxymethyl-3,4-dihydro-2H-1-benzopyran]
level in Aqueous humor ([1]; 30 minutes): 1250 ng/mL
level in Retina ([1]; 30 minutes): 846 ng/mL
level in Vitreous humor ([1]; 30 minutes): 195 ng/mL
level in Aqueous humor ([1]; 120 minutes): 827 ng/mL
level in Plasma ([1]; 120 minutes): 0.9 ng/mL
level in Retina ([1]; 120 minutes): 225 ng/mL
level in Vitreous humor ([1]; 120 minutes): 194 ng/mL
FLK-1 expression in the cornea (control group 100%) [2]: about 30%
corneal angiogenesis in comparison with the corneal angiogenesis (100%) of the control group [3]: 52.6±10%
angiogenesis in comparison with the angiogenesis (100%) of the control group [4]: 25.1±10.8%
fluorescence intensity at laser-induced damage site (surrounding vessels = 100) ([5]; 0.1 mg/ml, VI (10 μl into the vitreous humor)): 53±2.8
fluorescence intensity at laser-induced damage site (surrounding vessels = 100) ([5]; 0.3 mg/ml, VI (10 μl into the vitreous humor)): 45±3.1
fluorescence intensity at laser-induced damage site (surrounding vessels = 100) ([5]; 25 mg/kg, IP (intraperitoneal)): 51±5
